Results taken from US20230390287A1, “MODULATORS OF PD-L1/PD-1 INTERACTION AND USES THEREOF” (Ramot at Tel-Aviv University Ltd., priority 2021, published 2023).

Columns and labels:
[1] = molecular target: PD-1/PD-L1 interaction (Homo sapiens (Human), UniProt Q9NZQ7); assay: HTRF PD-1/PD-L1 binding assay; type: biochemical; parameters: key to HTF assay (100 μM): +: positive compounds using 100 μM on HTRF; conditions: for dose-response effect in HTRF: 8 doses starting from 100 μM; for HTF assay (100 μM): compounds at 100 μM, hits defined as at least 50% inhibition of PD-1/PD-L1 interaction
Chain of PD-1/PD-L1 interaction (Q9NZQ7 19-238): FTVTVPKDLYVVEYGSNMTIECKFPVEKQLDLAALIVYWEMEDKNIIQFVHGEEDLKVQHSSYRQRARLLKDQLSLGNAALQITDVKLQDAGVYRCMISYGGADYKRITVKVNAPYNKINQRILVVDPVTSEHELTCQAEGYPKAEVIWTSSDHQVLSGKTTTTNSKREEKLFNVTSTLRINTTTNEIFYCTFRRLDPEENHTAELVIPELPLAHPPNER

[2] = molecular target: recombinant human PD-L1 (Homo sapiens (Human), UniProt Q9NZQ7); assay: Differential scanning fluorimetry (DSF) thermal denaturation; type: binding; conditions: for thermal shift / stabilization of PD-L1: 100 μM compound, 1% DMSO
Chain of recombinant human PD-L1 (Q9NZQ7 19-238): as above
Protocol: DSF was performed in a C1000 Touch thermal cycler equipped with a CFX96 optical reaction module (Bio Rad). For all fluorescence measurements, samples contained recombinant human PD-L1 (ThermoFisher) at 500 μg/ml in phosphate buffered saline (PBS), pH 7.4, 5% (m/v) Mannitol, 5% (m/v) Trehalose, 0.02% (v/v) Tween® 80, 2.5-fold SYPRO® Orange, 1% (v/v) DMSO (Sigma-Aldrich) and 100 μM of each compound. The PCR plate was sealed with Optical-Quality Sealing Tape (Bio-Rad) and centrifuged at 300 g for 5 minutes. The DSF assay was carried out by increasing the temperature from 20 to 90° C., with a 1 second hold time every 0.2° C. and fluorescence acquisition using the FRET channel, after an initial incubation step of 10 minutes at 20° C. Control experiments in the absence of DMSO and/or compounds were routinely performed in each microplate.
Data were processed using CFX Manager Software V3.0 (Bio-Rad) and the GraphPad Prism 7. Temperature scan curves were fitted to a dose-response sigmoid function (Boltzmann equation) and the melting temperature (Tm values) were obtained from the midpoint of the transition. Normalization of the RFU was also performed to prevent distraction due to different maximum and minimum values upon compounds treatment. The RFU values from different data sets were converted to a common scale 0-1, where 0 represents the fluorescence of the native protein and 1 the fluorescence of the denatured protein. To monitor the binding properties towards each compound, DSF assays were run in the absence and presence of 100 μM compounds using 1% (v/v) DMSO as vehicle control.
To test this hypothesis, the melting temperature (Tm) of the PD-L1 was determined in thermal denaturation assays by differential scanning fluorimetry (DSF) and checked for a shift in the proteins' Tm (ΔTm) in the presence of the PD-L1 inhibitor candidates. The extent of temperature shift is proportional to the compounds' stabilizing effect and thereby used to infer inhibitors' affinity.

[3] = Compound stability (no method given); type: physicochemical
[4] = tested on: PD-1/PD-L1 interaction on A375 cells; assay: Cell-based PD-1/PD-L1 inhibition (accessible PD-L1 by flow cytometry), A375; parameters: species or system human; conditions: A375 stimulated with IFN-γ; 10 μM; 72 hours
Protocol: (§1) PD-1/PD-L1 Inhibition on Human Melanoma and Breast Cancer Cell Lines:
(§2) Cells (0.1×10^6 cells) were tested for PD-1/PD-L1 inhibition by co-incubation of hit compounds, DMSO (background), BMS-202 (Selleckchem) and anti-human PD-L1 (BioxCell, Clone 29E.2A3) (positive controls) for 72 hours in 2 ml DMEM medium. Non-confluent cell cultures were scraped into single-cell suspension, washed with PBS, and counted. Cells were subsequently stained with PD-1 fluorescent proxy for 30 minutes at 4° C., washed twice and resuspended in FACS buffer. Cells were analyzed using BD LSRFortessa (BD Biosciences) and data analyzed with FlowJo software for Mac (FlowJo, LLC 2013-2016). Mean fluorescence intensity (MFI) was derived from each sample. The PD-1/PD-L1 inhibition in cells was measured by a decrease in MFI relative to background.
(§3) The remaining accessible PD-L1 was determined by flow cytometry.

[5] = tested on: MDA-MB-231 cells; assay: MTT cell viability, MDA-MB-231; type: cell-based, human; conditions: 1, 10, 100 μM, 48 hours
Protocol: (§4) For the MTT assays, cells were seeded in 96-multi-well plate at a concentration of 7,000 cells per well. Six hours after seeding, cells were treated with the compounds and DMSO as a negative control. Forty-eight hours after the addition of the compounds, 20 μl of MTT (Sigma-Aldrich) dissolved in 5 mg/ml of PBS were added to each well and incubated for 2 hours at 37° C. Solutions were removed, and 100 μl of DMSO were added to each well and gently mixed on a shaker. The absorbance of control and treated wells was read against a DMSO blank at 570 nm using an Epoch micro-plate reader (Biotek). Each hit compound was tested in three replicates, in three independent experiments.
(§5) Human breast cancer MDA-MB-231 and melanoma A375 cells were exposed to increasing concentrations (1, 10, and 100 μM) of selected compounds for 48 hours. Cell viability was normalized to untreated cells. Three different concentrations 100 μM (blue), 10 μM (green) and 1 μM (gray) were tested. Data are presented as mean±SD, N=3, n=3 and N=1, n=3, from three or one independent experiment(s) performed in triplicate.

[6] = tested on: A375 cells; assay: MTT cell viability, A375; type: cell-based, human; conditions: 1, 10, 100 μM, 48 hours
Protocol: as §4, §5

[7] = tested on: PD-1/PD-L1 interaction on MDA-MB-231 cells; assay: Cell-based PD-1/PD-L1 inhibition (accessible PD-L1 by flow cytometry), MDA-MB-231; parameters: species or system human; conditions: 10 μM, 72 hours
Protocol: as §1, §2
The selected cell lines were incubated with the selected compounds to assess compound-binding affinities, and consequently PD-1/PD-L1 inhibition. The levels of remaining accessible PD-L1 in these cells were evaluated by FACS analysis using a fluorescence PD-1 proxy. To understand compound activity, different incubation times (24, 48 and 72 hours) were evaluated on MDA-MB-231 breast cancer cell line.
as §3

[8] = HTRF dose-response starting from 100 μM
[9] = Table A, HTRF dose-response, NA = Not applicable (No dose-response effect)
[10] = Table B, HTRF dose-response, NA = no dose-response effect

Structure (SMILES) | dose-response effect in HTRF [1] | HTF assay (100 μM) [1] | IC50 [1, 8] | IC50 [1, 9] | IC50 [1, 10] | interference with the fluorescence-dye in DSF [2] | stability of compound [3] | impact on PD-L1 accessibility / PD-1/PD-L1 interaction [4] | toxicity (cell viability, MTT) [5] | toxicity (cell viability, MTT) [6] | impact on PD-L1 accessibility / PD-1/PD-L1 interaction [7] | thermal shift / stabilization of PD-L1 [2]
CN(C)CCNC(=O)N1CCCN(c2ncnc3cc(-c4ccccc4)sc23)CC1 [Compound 35] | no dose-response was observed | + | – | – | – | – | – | – | – | – | – | –
CC(C)(C)OC(=O)N1CCN(c2cc(-c3ccc(Oc4ccccc4)cc3)n[nH]2)CC1 [Compound 30] | no dose-response was observed | + | – | – | – | – | – | – | – | – | – | –
CC1(C)OCC(C2OC3OC(C)(C)OC3C2NNC(=O)c2cc3cc(OCc4ccccc4)ccc3[nH]2)O1 (stereo not drawn) [Compound 71] | – | + | 380 nM | 380 nM | 380 nM | revealed to interfere | – | – | – | – | – | –
CN1CCN(S(=O)(=O)c2ccc(-c3ccc4c(Nc5ccc6nn[nH]c6c5)ccnc4c3)cc2)CC1 [Compound 29] | – | + | 4000 nM | 4000 nM | 4000 nM | – | stability issues | – | – | – | – | –
COc1nc(OCc2cccc(-c3ccccc3)c2C)ccc1CNCCNC(C)=O [BMS202, reference compound] | – | – | – | – | – | – | – | did not exhibit a significant impact | higher toxicity at the highest concentration | higher toxicity at the highest concentration | did not exhibit a significant impact | –
O=C(NC1CC1)c1ccc(N2CCC(Cc3ccccc3)CC2)nc1 [Compound 38] | no dose-response was observed | + | – | – | – | – | – | – | – | – | – | –
CCCCCCCCSc1nc2ccc(/N=C\c3ccccc3O)cc2s1 [Compound 42] | – | + | 57 nM | 57 nM | 57 nM | – | – | – | – | – | – | stabilization of PD-L1
CC1CCCCN1C(=O)NCCc1coc(-c2ccc(F)cc2)n1 (stereo not drawn) [Compound 32] | no dose-response was observed | + | – | – | – | – | – | – | – | – | – | –
N#Cc1nc(CC(=O)/C=C/c2ccccc2)c(CC(=O)/C=C/c2ccccc2)nc1C#N [Compound 18] | – | + | 190 nM | 190 nM | 190 nM | – | stability issues | – | – | – | – | –
COc1ccc(-c2nc(N)nc(-c3cc(C)ccc3O)c2Cl)cc1 [Compound 45] | – | + | 596 nM | 596 nM | 596 nM | – | – | – | – | – | – | –
COc1ccc(-c2nc(N)nc(-c3cc(C)ccc3OC)c2Cl)cc1 [Compound 5] | – | + | 2440 nM | 2440 nM | 2440 nM | – | – | – | – | – | – | stabilization of PD-L1
Cc1cc(SCC(=O)c2ccc3c(ccc4ccccc43)c2)cc(C)[o+]1.[Br-] [Compound 47] | – | + | 149 nM | 149 nM | 149 nM | – | – | – | – | – | – | stabilization of PD-L1
CCN(CC)CCNc1nc(NCCN(CC)CC)c2nc(-c3ccccc3)c(-c3ccccc3)nc2n1 [Compound 1] | – | + | 186 nM | 186 nM | 186 nM | revealed to interfere | – | – | toxicity higher or similar to that obtained for BMS202 | toxicity higher or similar to that obtained for BMS202 | – | –
Cc1nc(C)c(C(=O)NNC(=O)Cc2ccccc2)cc1C(=O)NNC(=O)Cc1ccccc1 [Compound 84] | – | + | 1090 nM | 1090 nM | 1090 nM | – | – | – | – | – | – | stabilization of PD-L1
Cc1cc(C)nc(NS(=O)(=O)c2ccc(NC(=O)c3cccnc3Nc3cccc(Cl)c3)cc2)n1 [Compound 75] | – | + | 1550 nM | 1550 nM | 1550 nM | – | – | – | toxicity higher or similar to that obtained for BMS202 | toxicity higher or similar to that obtained for BMS202 | – | stabilization of PD-L1
O=C(c1ccc(-c2ccccc2)cc1)c1nc(-c2ccc(-c3ccccc3)cc2)c[nH]1 [Compound 73] | – | + | 149 nM | 149 nM | 149 nM | revealed to interfere | – | – | toxicity higher or similar to that obtained for BMS202 | toxicity higher or similar to that obtained for BMS202 | – | –
